Data reported in ChEMBL document CHEMBL1126040 (J Med Chem, 1992).

Legend:
[1] = molecular target: Sodium-dependent dopamine transporter (Rattus norvegicus, UniProt P23977); test: Inhibition of […] binding to the dopamine transporter in rat striatal membranes.; format: cell membranes, Membrane
[2] = molecular target: Sodium-dependent dopamine transporter (Rattus norvegicus) (UniProt P23977); test: In vitro ability to inhibit the [3H]WIN-35428 binding to cocaine binding site on dopamine transporter in rat striatal membranes irreversibly after no wash.; format: cell membranes; set-up: concentration or dose not given beside the values; settings: Striatum; Membrane
[3] = molecular target: Sodium-dependent dopamine transporter (Rattus norvegicus) (UniProt P23977); test: In vitro ability to inhibit the [3H]WIN-35428 binding to cocaine binding site on dopamine transporter in rat striatal membranes irreversibly after one wash.; format: cell membranes; set-up: concentration or dose not given beside the values; settings: Striatum; Membrane
[4] = molecular target: Sodium-dependent dopamine transporter (Rattus norvegicus) (UniProt P23977); test: In vitro ability to inhibit the [3H]WIN-35428 binding to cocaine binding site on dopamine transporter in rat striatal membranes irreversibly after two washes.; format: cell membranes; set-up: concentration or dose not given beside the values; settings: Striatum; Membrane
[5] = molecular target: Sodium-dependent dopamine transporter (Rattus norvegicus) (UniProt P23977); test: In vitro ability to inhibit the [3H]WIN-35428 binding to cocaine binding site on dopamine transporter in rat striatal membranes irreversibly after three washes.; format: cell membranes; set-up: concentration or dose not given beside the values; settings: Striatum; Membrane

Sodium-dependent dopamine transporter (Rattus norvegicus), sequence (P23977 whole entry): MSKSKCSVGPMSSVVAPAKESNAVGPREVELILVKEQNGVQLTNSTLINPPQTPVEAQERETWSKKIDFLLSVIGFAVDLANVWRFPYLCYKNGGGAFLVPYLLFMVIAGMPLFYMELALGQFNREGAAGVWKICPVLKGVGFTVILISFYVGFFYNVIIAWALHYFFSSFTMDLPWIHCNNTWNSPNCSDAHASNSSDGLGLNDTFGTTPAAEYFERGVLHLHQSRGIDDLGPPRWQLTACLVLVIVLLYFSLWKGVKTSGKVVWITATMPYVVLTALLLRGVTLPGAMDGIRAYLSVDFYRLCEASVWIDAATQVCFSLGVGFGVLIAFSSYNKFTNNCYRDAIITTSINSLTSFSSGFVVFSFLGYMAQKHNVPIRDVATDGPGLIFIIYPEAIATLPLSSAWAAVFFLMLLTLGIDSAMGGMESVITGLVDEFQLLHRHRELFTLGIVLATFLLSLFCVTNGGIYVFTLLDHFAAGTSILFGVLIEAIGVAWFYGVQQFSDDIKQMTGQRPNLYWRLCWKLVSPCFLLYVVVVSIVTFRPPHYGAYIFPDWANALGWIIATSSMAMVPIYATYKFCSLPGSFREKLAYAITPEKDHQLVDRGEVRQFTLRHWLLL
Sodium-dependent dopamine transporter, sequence (P23977 whole entry): as above

| Structure (SMILES) | IC50 [1] | Control [2] | Control [3] | Control [4] | Control [5] |
| --- | --- | --- | --- | --- | --- |
| CN1C2CC[C@@H]1C[C@H](OC(=O)c1ccccc1)[C@@H]2C(=O)OCCc1ccc(N=C=S)cc1 | 196 nM |  |  |  |  |
| COC(=O)[C@H]1[C@@H](OC(=O)c2ccccc2)C[C@@H]2CC[C@H]1N2C |  | 43% | 85% | 79% |  |
| CN1C2CC[C@@H]1C[C@H](c1ccc(Cl)cc1)[C@@H]2C(=O)OCCc1ccc(NC(=O)CBr)cc1 | 1.73 nM | 14% | 23% | 26% | 34% |
| CN1C2CC[C@@H]1C[C@H](OC(=O)c1ccccc1)[C@@H]2C(=O)OCCc1ccc(NC(=O)CBr)cc1 | 61 nM | 22% | 34% | 33% | 38% |
| COC(=O)[C@@H]1C2CC[C@H](C[C@@H]1c1ccc(N=[N+]=[N-])c(I)c1)N2C | 4.93 nM | 0% | 2% | 5% | 5% |
| CN1C2CC[C@@H]1C[C@H](c1ccc(Cl)cc1)[C@@H]2C(=O)OCCc1ccc(N=[N+]=[N-])cc1 | 6.17 nM | 21% | 19% | 24% | 26% |
| CN1C2CC[C@@H]1C[C@H](c1ccc(Cl)cc1)[C@@H]2C(=O)OCCc1ccc(N=[N+]=[N-])c(I)c1 | 14.5 nM | 14% | 14% | 22% | 16% |
| CN1C2CC[C@@H]1C[C@H](c1ccc(Cl)cc1)[C@@H]2C(=O)OCCc1ccc(N=C=S)cc1 | 5.3 nM | 24% | 29% | 26% | 30% |
| CN1C2CC[C@@H]1C[C@H](OC(=O)c1ccccc1)[C@@H]2C(=O)OCCCc1ccccc1 | 139 nM |  |  |  |  |
| COC(=O)[C@@H]1C2CC[C@H](C[C@@H]1c1ccc(N)c(I)c1)N2C | 1.35 nM |  |  |  |  |
| CN1C2CC[C@@H]1C[C@H](OC(=O)c1ccccc1)[C@@H]2C(=O)OCCc1ccccc1 | 248 nM |  |  |  |  |
| CN1C2CC[C@@H]1C[C@H](c1ccc(Cl)cc1)[C@@H]2C(=O)OCCc1ccc(N)c(I)c1 | 2.51 nM |  |  |  |  |
| CN1C2CC[C@@H]1C[C@H](OC(=O)c1ccccc1)[C@@H]2C(=O)OCCc1ccc(N)cc1 | 72 nM |  |  |  |  |
| CN1C2CC[C@@H]1C[C@H](OC(=O)c1ccccc1)[C@@H]2C(=O)OCCc1ccc(N=[N+]=[N-])cc1 | 227 nM | 23% | 30% | 45% | 49% |
| CN1C2CC[C@@H]1C[C@H](OC(=O)c1ccccc1)[C@@H]2C(=O)OCCc1ccc([N+](=O)[O-])cc1 | 601 nM |  |  |  |  |
| CN1C2CC[C@@H]1C[C@H](c1ccc(Cl)cc1)[C@@H]2C(=O)OCCc1ccc(N)cc1 | 2.16 nM |  |  |  |  |
| CN1C2CC[C@@H]1C[C@H](c1ccc(Cl)cc1)[C@@H]2C(=O)OCCc1ccc([N+](=O)[O-])cc1 | 2.71 nM |  |  |  |  |
